The source made the active and inactive calls.
Key:
[1] = molecular target: ADP-ribosylation factor GTPase-activating protein 1 (Rattus norvegicus, UniProt Q62848); assay: Fluorescence polarization-based biochemical high throughput dose response screening assay to identify inhibitors of ADP-ribosylation factor GTPase activating protein 1 (ARFGAP1).; type: functional
[2] = molecular target: 5-hydroxytryptamine receptor 2A (Mus musculus, UniProt P35363); type: functional, cell-based;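 also: CHO-K1 cells with tagged receptor and beta-arrestin; agonist potency measured as compound-induced activation of the receptor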
Sequence of 5-hydroxytryptamine receptor 2A (P35363 whole entry): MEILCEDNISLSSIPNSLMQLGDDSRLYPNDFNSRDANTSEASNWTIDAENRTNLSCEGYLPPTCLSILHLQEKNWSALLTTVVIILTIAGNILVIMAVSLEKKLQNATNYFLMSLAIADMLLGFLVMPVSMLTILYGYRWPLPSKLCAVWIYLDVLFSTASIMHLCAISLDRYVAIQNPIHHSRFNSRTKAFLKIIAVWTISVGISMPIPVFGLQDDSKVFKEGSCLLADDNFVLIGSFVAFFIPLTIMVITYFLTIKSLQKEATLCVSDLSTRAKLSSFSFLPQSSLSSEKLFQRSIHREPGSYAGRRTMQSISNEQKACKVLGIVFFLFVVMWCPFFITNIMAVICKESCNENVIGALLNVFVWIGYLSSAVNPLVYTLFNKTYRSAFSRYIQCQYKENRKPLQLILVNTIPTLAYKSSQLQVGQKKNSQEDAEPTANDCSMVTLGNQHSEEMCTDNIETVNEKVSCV

Mu-type opioid receptor = Mu-type opioid receptor (Homo sapiens, UniProt P35372); type: functional, cell-based;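 also: U2OS cells with beta-arrestin recruitment to OPRM1 by beta-gal complementation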
[3] = molecular target: Neurotensin receptor type 1 (Homo sapiens, UniProt P30989); type: functional;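 also: Image-based confirmatory dose-response assay measuring agonist activity at NTR1; NTR1-expressing U2OS osteosarcoma cells imaged for beta-arrestin GFP spot formation; agonist potency where compounds increase beta-arrestin recruitment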
[4] = molecular target: DNA repair and recombination protein RAD54-like (Homo sapiens, UniProt Q92698); assay: RAD54 Holliday junction migration blockers – biochemical, fluorescence, cherry-picked samples, dose series, confirmation (AID 651657); type: functional
Sequence of DNA repair and recombination protein RAD54-like (Q92698 whole entry): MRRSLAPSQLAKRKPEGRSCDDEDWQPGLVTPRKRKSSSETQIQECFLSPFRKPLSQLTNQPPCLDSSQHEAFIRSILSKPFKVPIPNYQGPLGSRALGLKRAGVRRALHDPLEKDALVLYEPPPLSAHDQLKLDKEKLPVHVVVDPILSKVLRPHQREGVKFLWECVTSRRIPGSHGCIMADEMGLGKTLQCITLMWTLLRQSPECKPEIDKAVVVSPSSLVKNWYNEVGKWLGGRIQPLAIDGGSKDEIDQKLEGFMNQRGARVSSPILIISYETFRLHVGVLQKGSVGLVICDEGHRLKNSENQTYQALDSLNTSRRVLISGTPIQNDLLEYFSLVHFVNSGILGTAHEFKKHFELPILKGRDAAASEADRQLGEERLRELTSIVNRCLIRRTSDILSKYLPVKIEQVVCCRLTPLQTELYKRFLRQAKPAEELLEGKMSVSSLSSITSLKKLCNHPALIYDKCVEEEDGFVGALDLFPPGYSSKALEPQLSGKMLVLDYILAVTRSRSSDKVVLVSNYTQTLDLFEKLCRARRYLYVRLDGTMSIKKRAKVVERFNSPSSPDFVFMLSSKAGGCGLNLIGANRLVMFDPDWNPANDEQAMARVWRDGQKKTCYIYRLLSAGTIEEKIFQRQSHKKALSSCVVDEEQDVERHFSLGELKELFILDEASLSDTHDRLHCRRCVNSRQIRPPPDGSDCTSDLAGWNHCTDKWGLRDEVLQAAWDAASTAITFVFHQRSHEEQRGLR

[5] = cytotoxicity toward MDA-MB-231 breast cancer cells – cell-based, CellTiter-Glo luminescence, cherry-pick, cytotoxicity control for RAD54 inhibitor project, dose response (AID 651692); type: functional
[6] = molecular target: T1, Small ubiquitin-related modifier 1 (Homo sapiens, UniProt P63165); assay: SUMO1 protein interaction blockers, potency – biochemical, fluorescence polarization, uHTS hits, dose response (AID 624382); type: functional; settings: read-out: IC50_Mean
T1 sequence (P63165 whole entry): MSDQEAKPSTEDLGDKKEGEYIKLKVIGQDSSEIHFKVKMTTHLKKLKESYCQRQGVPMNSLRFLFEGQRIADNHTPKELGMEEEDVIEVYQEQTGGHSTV

Hexokinase HKDC1 = molecular target: T2, Hexokinase HKDC1 (Homo sapiens, UniProt Q2TB90); assay: inhibition of HKDC1 glucose phosphorylation – biochemical, W721R variant, dose response (AID 504729); type: functional
T2 sequence (Q2TB90 whole entry): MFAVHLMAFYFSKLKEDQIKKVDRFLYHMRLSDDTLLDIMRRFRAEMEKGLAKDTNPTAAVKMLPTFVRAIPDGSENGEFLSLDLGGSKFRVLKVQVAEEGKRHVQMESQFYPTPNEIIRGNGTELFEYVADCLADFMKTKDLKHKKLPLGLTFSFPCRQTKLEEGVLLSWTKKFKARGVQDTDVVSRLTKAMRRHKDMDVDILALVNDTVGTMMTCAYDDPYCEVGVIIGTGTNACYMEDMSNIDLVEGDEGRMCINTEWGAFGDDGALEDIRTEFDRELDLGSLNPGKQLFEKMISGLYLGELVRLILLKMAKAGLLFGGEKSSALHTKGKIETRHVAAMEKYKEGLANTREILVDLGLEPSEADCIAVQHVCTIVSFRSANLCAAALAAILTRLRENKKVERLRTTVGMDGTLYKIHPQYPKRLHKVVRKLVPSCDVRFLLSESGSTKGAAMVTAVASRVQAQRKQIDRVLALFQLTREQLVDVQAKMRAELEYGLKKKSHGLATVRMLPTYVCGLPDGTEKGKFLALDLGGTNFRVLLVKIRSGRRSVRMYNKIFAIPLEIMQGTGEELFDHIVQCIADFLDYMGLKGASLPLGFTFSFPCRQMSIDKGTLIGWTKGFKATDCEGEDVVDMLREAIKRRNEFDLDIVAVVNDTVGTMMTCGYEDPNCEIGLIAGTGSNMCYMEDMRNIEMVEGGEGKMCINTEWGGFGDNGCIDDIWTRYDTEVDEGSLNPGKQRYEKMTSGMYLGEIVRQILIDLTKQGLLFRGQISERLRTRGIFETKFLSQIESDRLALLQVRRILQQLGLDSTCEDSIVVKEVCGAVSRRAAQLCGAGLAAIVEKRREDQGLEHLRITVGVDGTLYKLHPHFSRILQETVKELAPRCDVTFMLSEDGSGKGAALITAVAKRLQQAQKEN

[7] = molecular target: DNA (cytosine-5)-methyltransferase 1 (Homo sapiens, UniProt P26358); assay: inhibition of DNA methylation by DNMT1 – biochemical, fluorescent molecular beacon, confirmation (AID 602386); type: functional
Sequence of DNA (cytosine-5)-methyltransferase 1 (P26358 whole entry): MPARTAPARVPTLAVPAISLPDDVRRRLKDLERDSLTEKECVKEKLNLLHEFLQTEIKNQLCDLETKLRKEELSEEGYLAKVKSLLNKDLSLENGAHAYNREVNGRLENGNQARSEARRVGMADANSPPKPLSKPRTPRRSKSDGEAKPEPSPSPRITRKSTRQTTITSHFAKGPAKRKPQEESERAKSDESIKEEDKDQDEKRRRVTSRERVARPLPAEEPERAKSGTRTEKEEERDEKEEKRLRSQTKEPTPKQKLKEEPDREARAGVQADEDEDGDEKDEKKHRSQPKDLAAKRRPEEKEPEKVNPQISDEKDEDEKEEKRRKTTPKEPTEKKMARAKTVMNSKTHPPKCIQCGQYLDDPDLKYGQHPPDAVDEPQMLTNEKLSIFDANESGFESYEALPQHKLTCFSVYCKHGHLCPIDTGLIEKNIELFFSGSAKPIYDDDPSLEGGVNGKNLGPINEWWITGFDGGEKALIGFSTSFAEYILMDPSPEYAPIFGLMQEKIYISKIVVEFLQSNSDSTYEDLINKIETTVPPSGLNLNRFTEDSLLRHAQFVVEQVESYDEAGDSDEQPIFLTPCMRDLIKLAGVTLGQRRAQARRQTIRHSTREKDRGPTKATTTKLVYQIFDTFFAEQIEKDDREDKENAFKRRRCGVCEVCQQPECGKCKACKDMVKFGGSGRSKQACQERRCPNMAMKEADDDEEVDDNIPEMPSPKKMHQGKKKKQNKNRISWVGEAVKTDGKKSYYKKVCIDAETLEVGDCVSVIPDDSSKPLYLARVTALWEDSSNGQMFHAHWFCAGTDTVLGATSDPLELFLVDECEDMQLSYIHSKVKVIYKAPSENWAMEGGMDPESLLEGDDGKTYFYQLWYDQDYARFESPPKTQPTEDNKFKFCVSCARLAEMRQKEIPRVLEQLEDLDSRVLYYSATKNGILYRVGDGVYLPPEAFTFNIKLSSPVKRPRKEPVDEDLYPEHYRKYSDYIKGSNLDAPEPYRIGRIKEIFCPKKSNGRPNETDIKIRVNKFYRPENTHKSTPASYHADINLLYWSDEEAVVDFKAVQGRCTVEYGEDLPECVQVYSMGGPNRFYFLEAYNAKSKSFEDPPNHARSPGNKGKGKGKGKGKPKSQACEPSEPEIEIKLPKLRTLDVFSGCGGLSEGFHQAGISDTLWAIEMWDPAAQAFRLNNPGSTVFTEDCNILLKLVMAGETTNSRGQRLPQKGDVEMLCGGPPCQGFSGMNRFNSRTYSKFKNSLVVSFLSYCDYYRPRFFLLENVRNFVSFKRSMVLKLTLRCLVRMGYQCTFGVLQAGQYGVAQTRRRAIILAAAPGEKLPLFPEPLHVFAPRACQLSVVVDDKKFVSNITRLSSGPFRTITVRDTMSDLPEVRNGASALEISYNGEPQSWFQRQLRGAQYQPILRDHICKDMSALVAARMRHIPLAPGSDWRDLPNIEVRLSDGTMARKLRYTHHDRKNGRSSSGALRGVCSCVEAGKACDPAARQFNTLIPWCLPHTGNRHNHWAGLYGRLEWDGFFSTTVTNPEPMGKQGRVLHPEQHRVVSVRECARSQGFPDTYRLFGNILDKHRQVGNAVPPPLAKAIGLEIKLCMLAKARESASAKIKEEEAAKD

[8] = molecular target: T1, Small ubiquitin-related modifier 1; assay: SUMO1 protein-protein binding blockers, potency – biochemical, FRET, dose response (AID 624383); type: functional; settings: read-out: IC50_Mean
Steroidogenic factor 1 = Steroidogenic factor 1 (Homo sapiens, UniProt Q13285); assay: Counterscreen for inverse agonists of the liver receptor homolog-1 (LRH-1; NR5A2): Luminescence-based cell-based high throughput dose response assay to identify inverse agonists of the Steroidogenic Factor 1 Nuclear Receptor (SF1; NR5A1).; type: functional
Sequence of Steroidogenic factor 1 (Q13285 whole entry): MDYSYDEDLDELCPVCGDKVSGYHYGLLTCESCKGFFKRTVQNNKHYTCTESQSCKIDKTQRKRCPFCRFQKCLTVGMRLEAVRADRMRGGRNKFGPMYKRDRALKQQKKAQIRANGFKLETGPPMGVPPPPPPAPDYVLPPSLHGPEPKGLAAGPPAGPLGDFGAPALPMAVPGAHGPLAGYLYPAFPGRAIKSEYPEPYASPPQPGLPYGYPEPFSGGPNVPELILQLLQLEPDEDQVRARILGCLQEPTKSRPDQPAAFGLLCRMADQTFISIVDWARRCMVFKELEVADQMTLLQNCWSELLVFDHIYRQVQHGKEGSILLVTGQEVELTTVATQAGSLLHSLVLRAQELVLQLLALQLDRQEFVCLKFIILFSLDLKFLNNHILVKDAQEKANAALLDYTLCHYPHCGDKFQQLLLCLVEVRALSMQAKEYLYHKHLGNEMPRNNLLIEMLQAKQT

[9] = nonselective StAR promoter luciferase inhibitors – cell-based, luminescence, luciferase reporter, counter-screen for LRH-1 inverse agonist project, dose response (AID 651969); type: functional
[10] = molecular target: Nuclear receptor subfamily 5 group A member 2 (Homo sapiens, UniProt O00482); type: functional, cell-based;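 also: HEK293T cells transfected with LRH-1 and a StAR promoter luciferase reporter; potency for inhibitors that lower LRH-1 driven reporter light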
Nonstructural protein 1 = Nonstructural protein 1 (Influenza A virus, UniProt Q194T2); type: functional, Influenza A virus (A/California/07/2009(H1N1))
Sequence of Nonstructural protein 1 (Q194T2 whole entry): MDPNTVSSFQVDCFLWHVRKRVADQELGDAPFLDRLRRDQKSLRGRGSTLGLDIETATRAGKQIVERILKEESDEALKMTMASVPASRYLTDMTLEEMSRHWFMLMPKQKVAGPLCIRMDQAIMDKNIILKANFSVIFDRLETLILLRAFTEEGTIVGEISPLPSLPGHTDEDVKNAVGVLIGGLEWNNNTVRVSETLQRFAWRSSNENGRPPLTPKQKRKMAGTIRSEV

[11] = NIH3T3 cell viability loss, ATP content – CellTiter-Glo luminescence, cherry-pick, set 2, cytotoxicity control for HSP40 inhibitor project, dose response (AID 624265); type: functional
[12] = molecular target: T3, Histone-lysine N-methyltransferase NSD2 (Homo sapiens, UniProt O96028); type: biochemical
T3 sequence (O96028 whole entry): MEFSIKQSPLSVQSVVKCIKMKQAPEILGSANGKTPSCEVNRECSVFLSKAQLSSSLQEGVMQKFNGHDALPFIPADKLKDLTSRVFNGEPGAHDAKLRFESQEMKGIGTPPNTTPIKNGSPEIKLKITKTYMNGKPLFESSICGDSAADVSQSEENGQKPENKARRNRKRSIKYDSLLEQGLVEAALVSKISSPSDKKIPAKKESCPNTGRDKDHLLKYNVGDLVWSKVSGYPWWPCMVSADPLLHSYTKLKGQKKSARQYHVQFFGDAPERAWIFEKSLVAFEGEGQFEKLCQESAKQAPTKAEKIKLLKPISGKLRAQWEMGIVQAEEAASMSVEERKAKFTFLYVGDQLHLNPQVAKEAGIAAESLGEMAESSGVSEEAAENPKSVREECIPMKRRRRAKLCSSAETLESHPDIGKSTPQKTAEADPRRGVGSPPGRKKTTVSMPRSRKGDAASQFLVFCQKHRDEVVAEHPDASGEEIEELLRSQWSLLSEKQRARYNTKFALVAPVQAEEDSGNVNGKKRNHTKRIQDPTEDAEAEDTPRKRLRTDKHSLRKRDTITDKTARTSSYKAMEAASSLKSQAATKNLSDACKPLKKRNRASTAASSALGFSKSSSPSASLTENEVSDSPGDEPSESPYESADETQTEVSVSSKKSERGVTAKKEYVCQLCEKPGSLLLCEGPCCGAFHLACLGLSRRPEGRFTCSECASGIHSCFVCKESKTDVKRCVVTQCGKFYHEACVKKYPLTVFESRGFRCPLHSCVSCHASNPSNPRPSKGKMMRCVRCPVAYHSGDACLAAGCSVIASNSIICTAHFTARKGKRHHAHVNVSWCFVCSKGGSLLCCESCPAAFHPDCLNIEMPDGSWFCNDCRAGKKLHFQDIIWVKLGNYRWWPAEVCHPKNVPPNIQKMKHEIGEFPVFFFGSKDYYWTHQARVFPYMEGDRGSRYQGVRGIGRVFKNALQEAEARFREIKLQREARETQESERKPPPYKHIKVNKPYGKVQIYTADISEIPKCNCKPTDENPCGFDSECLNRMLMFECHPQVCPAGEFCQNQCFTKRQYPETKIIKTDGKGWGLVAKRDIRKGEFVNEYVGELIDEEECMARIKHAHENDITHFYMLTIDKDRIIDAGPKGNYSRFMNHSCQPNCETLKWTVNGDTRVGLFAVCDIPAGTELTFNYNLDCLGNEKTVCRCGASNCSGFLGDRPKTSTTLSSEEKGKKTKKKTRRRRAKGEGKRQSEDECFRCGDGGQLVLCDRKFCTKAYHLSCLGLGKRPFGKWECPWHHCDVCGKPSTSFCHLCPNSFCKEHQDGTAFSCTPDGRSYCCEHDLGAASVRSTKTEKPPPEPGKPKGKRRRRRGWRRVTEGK

[13] = molecular target: T4, Tyrosine-protein phosphatase non-receptor type 22 (Homo sapiens, UniProt Q9Y2R2); assay: lymphoid phosphatase LYP inhibitors – biochemical, selectivity assay for STEP inhibitor project, dose response (AID 624241); type: functional
T4 sequence (Q9Y2R2 whole entry): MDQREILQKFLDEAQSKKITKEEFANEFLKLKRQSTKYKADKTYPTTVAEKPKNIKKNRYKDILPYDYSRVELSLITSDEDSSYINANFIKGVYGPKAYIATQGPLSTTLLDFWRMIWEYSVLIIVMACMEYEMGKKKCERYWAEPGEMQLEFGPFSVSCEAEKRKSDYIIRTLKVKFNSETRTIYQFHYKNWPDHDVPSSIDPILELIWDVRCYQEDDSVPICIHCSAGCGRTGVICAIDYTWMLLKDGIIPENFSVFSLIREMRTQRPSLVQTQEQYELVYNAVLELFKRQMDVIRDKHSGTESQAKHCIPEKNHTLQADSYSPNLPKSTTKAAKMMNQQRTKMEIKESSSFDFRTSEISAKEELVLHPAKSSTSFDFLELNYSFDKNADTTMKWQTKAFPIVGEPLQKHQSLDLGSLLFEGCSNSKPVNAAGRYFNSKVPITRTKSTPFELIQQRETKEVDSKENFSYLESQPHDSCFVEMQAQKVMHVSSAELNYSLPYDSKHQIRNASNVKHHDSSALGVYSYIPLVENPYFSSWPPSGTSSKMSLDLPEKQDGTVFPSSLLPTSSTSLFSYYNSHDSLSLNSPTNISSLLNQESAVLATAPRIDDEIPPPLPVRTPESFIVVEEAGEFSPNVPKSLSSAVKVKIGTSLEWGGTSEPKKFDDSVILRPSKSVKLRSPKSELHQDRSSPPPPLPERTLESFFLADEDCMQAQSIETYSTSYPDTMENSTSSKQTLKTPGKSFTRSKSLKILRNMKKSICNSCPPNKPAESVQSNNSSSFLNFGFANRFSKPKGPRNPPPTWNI

[14] = molecular target: Tyrosine-protein phosphatase non-receptor type 11 (Homo sapiens, UniProt Q06124); assay: PTPN11 enzyme inhibitors – biochemical, selectivity assay for STEP inhibitor project, dose response (AID 602367); type: functional; settings: read-out: IC50_Mean
Sequence of Tyrosine-protein phosphatase non-receptor type 11 (Q06124 whole entry, the tested form may be a part): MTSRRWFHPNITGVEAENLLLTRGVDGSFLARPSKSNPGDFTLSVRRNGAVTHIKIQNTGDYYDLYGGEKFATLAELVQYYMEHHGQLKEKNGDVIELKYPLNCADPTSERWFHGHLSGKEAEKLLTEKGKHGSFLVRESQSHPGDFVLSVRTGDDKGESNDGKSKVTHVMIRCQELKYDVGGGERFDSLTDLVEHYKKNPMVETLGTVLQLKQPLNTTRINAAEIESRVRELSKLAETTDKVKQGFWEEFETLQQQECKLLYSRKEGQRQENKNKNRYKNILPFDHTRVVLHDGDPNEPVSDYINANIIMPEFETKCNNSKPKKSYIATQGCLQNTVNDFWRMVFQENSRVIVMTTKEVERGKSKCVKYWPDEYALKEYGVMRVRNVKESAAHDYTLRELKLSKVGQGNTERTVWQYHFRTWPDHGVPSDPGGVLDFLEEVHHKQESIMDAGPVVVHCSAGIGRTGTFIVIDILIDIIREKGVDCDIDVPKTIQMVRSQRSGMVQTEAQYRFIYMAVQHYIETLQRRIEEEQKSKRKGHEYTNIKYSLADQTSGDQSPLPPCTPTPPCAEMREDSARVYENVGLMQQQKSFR

[15] = molecular target: T5, Carboxy-terminal domain RNA polymerase II polypeptide A small phosphatase 1 (Homo sapiens, UniProt Q9GZU7); assay: CTDSP1 inhibitors, concentration-response, biochemical, absorbance readout, ultra-high-throughput screen actives (AID 540297); type: functional
T5 sequence (Q9GZU7 whole entry): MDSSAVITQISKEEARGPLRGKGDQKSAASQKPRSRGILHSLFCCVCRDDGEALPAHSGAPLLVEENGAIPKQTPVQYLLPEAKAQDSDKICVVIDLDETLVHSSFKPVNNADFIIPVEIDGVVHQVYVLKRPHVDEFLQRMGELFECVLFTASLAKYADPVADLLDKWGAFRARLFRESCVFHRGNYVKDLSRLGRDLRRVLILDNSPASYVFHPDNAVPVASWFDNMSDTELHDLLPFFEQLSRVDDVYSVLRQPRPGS

[16] = molecular target: T6, Low molecular weight phosphotyrosine protein phosphatase (Homo sapiens, UniProt P24666); type: functional; settings: read-out: IC50_Mean;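 also: Dose-response confirmation assay measuring inhibition of LMPTP enzyme activity by fluorescence intensity read-out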
T6 sequence (P24666 whole entry): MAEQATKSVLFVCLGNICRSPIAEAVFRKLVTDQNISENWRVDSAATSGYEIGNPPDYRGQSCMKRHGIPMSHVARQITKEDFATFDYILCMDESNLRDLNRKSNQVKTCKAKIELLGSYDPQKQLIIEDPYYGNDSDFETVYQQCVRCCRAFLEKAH

[17] = molecular target: Dual specificity protein phosphatase 3 (Homo sapiens, UniProt P51452); assay: VHR phosphatase inhibition, dose response, selectivity assay for STEP inhibitor project, biochemical (AID 602374); type: functional; settings: read-out: IC50_Mean
Sequence of Dual specificity protein phosphatase 3 (P51452 whole entry): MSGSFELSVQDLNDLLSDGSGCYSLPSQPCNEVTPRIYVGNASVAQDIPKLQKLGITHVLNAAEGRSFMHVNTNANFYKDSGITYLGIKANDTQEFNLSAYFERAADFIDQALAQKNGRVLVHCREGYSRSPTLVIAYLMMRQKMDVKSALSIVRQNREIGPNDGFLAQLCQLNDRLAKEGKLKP

[18] = molecular target: Tyrosine-protein phosphatase non-receptor type 5 (Homo sapiens, UniProt P54829); assay: PTPN5 enzyme inhibition – biochemical, fluorescence intensity, uHTS hits, confirmation (AID 602372); type: functional; settings: read-out: IC50_Mean
[19] = molecular target: T7, Protein disulfide-isomerase (Homo sapiens, UniProt P07237); assay: inhibition of PDI-mediated insulin reduction – biochemical, turbidity, absorbance, cherry-picked samples, set 2, dose response (AID 624274); type: functional
T7 sequence (P07237 whole entry): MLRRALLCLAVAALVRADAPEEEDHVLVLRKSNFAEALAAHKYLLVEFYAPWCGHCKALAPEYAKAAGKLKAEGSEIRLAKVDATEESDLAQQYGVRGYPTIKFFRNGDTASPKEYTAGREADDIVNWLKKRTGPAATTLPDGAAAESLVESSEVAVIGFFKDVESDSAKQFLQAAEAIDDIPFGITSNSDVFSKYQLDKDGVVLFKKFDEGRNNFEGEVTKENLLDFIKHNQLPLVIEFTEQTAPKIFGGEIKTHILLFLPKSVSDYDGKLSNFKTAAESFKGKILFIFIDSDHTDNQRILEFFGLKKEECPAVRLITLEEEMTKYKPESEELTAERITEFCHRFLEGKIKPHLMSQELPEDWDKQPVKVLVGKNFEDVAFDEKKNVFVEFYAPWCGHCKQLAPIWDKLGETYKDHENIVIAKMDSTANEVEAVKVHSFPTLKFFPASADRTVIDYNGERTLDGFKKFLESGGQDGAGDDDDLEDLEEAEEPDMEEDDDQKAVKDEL

[20] = molecular target: T7, Protein disulfide-isomerase; assay: inhibition of PDI-driven insulin aggregation – biochemical, turbidity, absorbance, cherry-picked samples, dose response (AID 602350); type: functional

## COc1ccc(-n2c(SCC(N)=O)nc3sc4c(c3c2=O)CCN(C)C4)cc1
[1]
  IC50: 111 µM (inactive)

## COc1ccc(CN2CCN(c3ncccn3)CC2)c(OC)c1
[2]
  EC50: 0.322 µM (active)
Mu-type opioid receptor
  EC50: 92.5 µM (inactive)

## CCOC(=O)c1c(NC(C)=O)sc2c(OCC(O)CN(CC)CC)c(Br)ccc12 (centres undefined)
[3]
  EC50: 22.6 µM (inactive)
[4]
  AC50: 8.3 µM (active)
[5]
  AC50: 24.6 µM (active)

## O=C(/C=C/c1ccc(Br)cc1)NC(=S)Nc1ccc(S(=O)(=O)Nc2nccs2)cc1
[6]
  IC50: > 66.6 µM (inactive)
Hexokinase HKDC1
  IC50: 17.3 µM (active)
[7]
  IC50: 5.22 µM (active)
[8]
  IC50: 3.39 µM (active)

## CCOc1ccc(NC(=O)CN2CCN(CC(=O)Nc3ccc(OC)cc3)CC2)cc1
Steroidogenic factor 1
  IC50: 3.07 µM (active)
[9]
  IC50: 35.9 µM (inactive)
[10]
  IC50: 18.1 µM (inactive)

## O=C1c2cccc(Cl)c2C(=O)c2c1cccc2N1CCCC1
Nonstructural protein 1
  IC50: 8.7 µM (active)
[11]
  AbsAC35_uM: 61.52 µM
[12]
  AC50: 2.51 µM (active)

## NC(=O)c1cc2ccccc2o/c1=N\NC(=O)c1ccccc1O
[13]
  IC50: 90.7 µM (inactive)
[14]
  IC50: 5.39 µM (active)
[15]
  IC50: 7.89 µM (active)
[16]
  IC50: 24.2 µM (inactive)
[17]
  IC50: 1.93 µM (active)
[18]
  IC50: 6.57 µM (active)

## COc1cccc(/C=N/NC(=O)CNC(=O)c2ccc3c(c2)OCCO3)c1O
[19]
  AC50: 0.009 µM (active)
[20]
  AC50: < 0.009 µM (active)
